Assay results as given in US20160274123A1, “One-Photon and/or Two-Photon Fluorescent Probe for Sensing Hydrogen Sulfide, Imaging Method of Hydrogen Sulfide Using Same, and Manufacturing Method Thereof” (POSTECH ACADEMY-INDUSTRY FOUNDATION, priority 2013, published 2016).
“Also recorded” adds a separate entry of the source.

Legend:
[1] = Fluorescence change of the probe on reaction with hydrogen sulfide in buffer; conditions: Compound 10 μM
Method: A mechanism of a fluorescence turn-on phenomenon according to a reaction between Compound 2 and hydrogen sulfide is shown in FIG. 1a, an α-β unsaturated carbonyl group of Compound 2 reacted with hydrogen sulfide to induce a ring-shape in a chemical reaction.
Therefore, to observe the fluorescence change of Compound 2 due to hydrogen sulfide, a fluorescence graph of Compound 2 was measured in a buffer (pH 7.4, 10 mM HEPES buffer). For fluorescence spectra analysis, a photon technical international fluorescence system manufactured by PTI was used, as a cell providing Compound 2 to each instrument, a standard quartz cell having a thickness of 1 cm was used. First, Compound 2 (10 μM) was treated with hydrogen sulfide at a concentration of 0 to 50 μM, and after 5 minutes, a fluorescence graph was checked.
To observe the fluorescence change of Compound 2 over time due to hydrogen sulfide, Compound 2 (10 μM) was treated with 100 μM of hydrogen sulfide (using the same buffer as used in Example 1), and a graph of fluorescence over time was analyzed. When an excitation wavelength was 375 nm, a fluorescence emission wavelength was detected to be 510 nm.
To observe the hydrogen sulfide sensitivity of Compound 2 based on fluorescence change, an amount of Na2S (the same as H2S) in Compound 2 (10 μM) was reduced. A buffer used in the experiment was the same as used in Example 1, 50 nM of Na2S was added, an excitation wavelength was 375 nm, and a fluorescence emission wavelength was detected to be 510 nm.
To observe fluorescence changes of Compound 2 due to hydrogen sulfide under various acidity (pH) conditions, the fluorescence changes were examined when Compound 2 (10 μM) bound to H2S under various acidity conditions (pH 5˜9). In other words, 100 μM of H2S reacted to Compound 2 at pH 5, 6, 7, 8, or 9, and then 5 minutes later, a fluorescence intensity was measured. Here, an excitation wavelength was 375 nm, and a fluorescence emission wavelength was detected to be 510 nm.

[2] = Fluorescence change under hydrogen sulfide and biological sulfide conditions (selectivity); conditions: Compound 10 μM; Na2S 100 μM, GSH 10 mM, Cys 200 μM, Hcy 50 μM; pH 7.4 HEPES buffer; excitation 375 nm, emission 510 nm
Method: To confirm the hydrogen sulfide selectivity of Compound 2 under hydrogen sulfide and biological sulfide conditions, the fluorescence change of Compound 2 (10 μM) was observed under biological sulfide conditions (Na2S (100 μM), the same material as H2S), glutathione (GSH, 10 mM), cysteine (Cys, 200 μM), and homocysteine (Hcy, 50 μM) (using the same buffer as used in Example 1)). Here, an excitation wavelength was 375 nm, and a fluorescence emission wavelength was detected to be 510 nm.
That is, the fluorescence changes of Compounds 2, 3 and 4 (10 μM) were observed under the biological sulfide conditions (Na2S (100 μM, the same as H2S), glutathione (GSH, 10 mM), cysteine (Cys, 200 μM), homocysteine (Hcy, 50 μM)), a buffer used in the experiment was the same as used in Example 1, an excitation wavelength was 375 nm, and a fluorescence emission wavelength was detected to be 510 nm.

[3] = Fluorescence change on reaction with various types of biological substances; conditions: Compound 10 μM; amino acids, lipoic acid, anions, H2O2 each 100 μM; about 30 minutes; pH 7.4 HEPES buffer
Method: To observe fluorescence changes according to reactions between various types of biological substances and Compound 2, Compound 2 (10 μM) was reacted with a biologically-active substance (an amino acid (Ala, Glu, Lys, or Met), lipoic acid, an anion (NO^2−, SO4^2−, S2O3^2−, SCN^−, or I^−), and active oxygen (H2O2). A buffer used in the experiment was the same as used in Example 1, and the concentration of each biologically-active substance was 100 μM. Each biologically-active substance was added, and after about 30 minutes, an excitation wavelength was 375 nm, and a fluorescence emission wavelength was detected to be 510 nm.

HeLa cells [4] = test: Cell imaging using one-photon and two-photon fluorescence microscopes; type: cell-based, human; conditions: probe 10 μM
Method: To observe a fluorescence change according to the treatment with Compound 2 through cell imaging using one-photon and two-photon fluorescence microscopes, Compound 2 (10 μM) was treated with human cervical carcinoma cells (HeLa cells). The HeLa cells were cultured in a Dulbecco's modified eagles medium (DMEM, Hyclone) containing 10% fetal bovine serum (Hyclone) and penicillin-streptomycin (Hyclone) with 5% carbon dioxide at an ambient temperature of 37° C. to a cell density of about 20,000 cells/cm^2, and used in the experiment. The used one-photon fluorescence microscope is an LSM710 confocal microscope manufactured by Carl Ziess, and the two-photon fluorescence microscope is a Chameleon Ultra model having a Ti-sapphire laser, which is manufactured by Coherent. A lens used in the two-photon fluorescence microscope is an XLUMPLFNM, NA 1.0 model manufactured by Olympus, and a wavelength and laser power of the two-photon fluorescence microscope are 880 nm and 15 mW, respectively. […]

[5] = test system: hydrogen sulfide (H2S) in each organ (the brain, kidney, liver, spleen or lung) of a mouse; test: Mouse organ tissue imaging using two-photon fluorescence microscope; type: in vivo
Method: Tissue imaging per each organ of a Compound 2 treated mouse was performed using a two-photon fluorescence microscope. That is, the distribution of hydrogen sulfide (H2S) in each organ (the brain, kidney, liver, spleen or lung) of a mouse was confirmed using Compound 2. To this end, a set (1′) was prepared by injecting Compound 2 into the abdominal cavity of a live mouse and extracting an organ, and a set (2′) was prepared by extracting each organ of a mouse and immersing the organ in a solution of Compound 2. The mouse used in the experiment was a C57BL6 type (SAMTAKO Corp.), which is five weeks old. More particularly, for the set (1′), 20 μL of a 10 mM solution of Compound 2, which had been taken and diluted in 280 μL of a PBS (100 mM, pH 7.4) buffer, was injected into the abdominal cavity of a mouse twice a day for a total of 5 days, and then each organ was extracted. The extracted organ was frozen in dry ice for 5 minutes, crushed into smaller pieces with a hammer, and cut to a thickness of 16 μm using a section machine (Cryostat machine, Leica, CM3000 model). […] Subsequently, the resultant sample was washed three times with a PBS buffer, covered with a mount solution (Gel Mount, BIOMEDA), and then imaged using a two-photon fluorescence microscope, which is the same as used in Example 7. However, an excitation wavelength and laser power of the two-photon fluorescence microscope were 880 nm and 40 mW, respectively. Also, for the set (2′), first, each organ of a mouse was extracted and immersed in a solution (10 μM) of Compound 2 for 10 minutes, and then a sample prepared as described above was imaged by the same method used for the set (1′).

HeLa cells [6] = test: Cytotoxicity experiment by MTT method; type: cell-based, human
Method: To confirm the cytotoxicity of Compound 2 according to the present invention, a cytotoxicity experiment in HeLa cells was performed by an MTT method. That is, the Hela cells prepared by the same method as used in Example 7 were treated with Compound 2 at each concentration (0˜100 μM). In addition, to confirm the cytotoxicity, 25 μL of 3-(4,5-dimethldiazol-2-yl)-2, 5-diphenyltetrazolium bromide (MTT) having a concentration of 5 mg/mL was added. The cells were cultured at 37° C. for about 2 hours, treated with 100 μL of a solubilizing solution (50% dimethylformamide, 20% SDS, pH 7.4), and cultured at 37° C. for 24 hours, and then the absorbance was measured at 570 nm.

[7] = 100 μM hydrogen sulfide, pH 7.4 10 mM HEPES buffer, excitation 375 nm, emission 510 nm

| SMILES | signal to noise ratio of fluorescence turn-on ([1]; 50 nM Na2S, about 5 minutes after addition, pH 7.4 HEPES buffer) | fluorescence change due to hydrogen sulfide under various acidity (pH) conditions ([1]; 100 μM H2S, pH 5, 6, 7, 8 or 9, 5 minutes) | time to approach the maximum fluorescence level [1, 7] [min] | time to saturation of fluorescence emission [1, 7] | fluorescence change with increasing concentration of hydrogen sulfide ([1]; hydrogen sulfide 0 to 50 μM, after 5 minutes, pH 7.4 10 mM HEPES buffer, excitation 375 nm, emission 510 nm) | low concentration of Na2S (H2S) at which fluorescence can be observed (sensitivity) ([1]; pH 7.4 HEPES buffer, excitation 375 nm, emission 510 nm) [nM] | selectivity to hydrogen sulfide under biological sulfide conditions [2] | selective fluorescence turn-on versus various biologically-active substances [3] | permeation into cells (HeLa cells [4]) | fluorescence change in cells treated only with the probe (HeLa cells [4]; cultured 30 minutes, set (2)) | two-photon fluorescence signal in organs after abdominal injection ([5]; set (1′): C57BL6 mouse, injected into the abdominal cavity twice a day for 5 days, organs extracted) | permeation into organs after abdominal injection ([5]; set (1′): living C57BL6 mouse, abdominal injection) | two-photon fluorescence change in extracted organs immersed in probe solution ([5]; set (2′): extracted mouse organs immersed in 10 μM solution for 10 minutes) | cytotoxicity (HeLa cells [6]; 0˜100 μM) | cell viability (HeLa cells [6]; concentrations until 100 μM) [%] |
| --- | --- | --- | --- | --- | --- | --- | --- | --- | --- | --- | --- | --- | --- | --- | --- |
| COc1cc(C=O)c(/C=C/C(=O)c2ccc3cc(NCCO)ccc3c2)c(OC)c1 [Compound 2, (E)-2-(3-(6-(2-hydroxyethylamino)naphthalene-2-yl)-3-oxoprop-1-enyl)-3,5-dimethoxybenzaldehyde] | ≥ 3 | the sharpest increase in fluorescence was shown at neutral pH | ≤ 5 | about 10 minutes | fluorescence intensity was increased | 50 | sufficient fluorescence turn-on phenomenon only in a reaction with Na2S; also recorded: high selectivity to hydrogen sulfide | only reacts with hydrogen sulfide (H2S) | easily permeates into cells | showed an increase in fluorescence | signals are increased in the brain, kidney, liver, spleen and lung | permeated throughout the organ, particularly, into the brain | strong fluorescence changes are shown in the brain, liver and lung | not toxic to the cells | ≥ 95 |
| COc1cccc(C=O)c1/C=C/C(=O)c1ccc2cc(NCCO)ccc2c1 [Compound 3, (E)-2-(3-(6-(2-hydroxyethylamino)naphthalene-2-yl)-3-oxoprop-1-enyl)-3-methoxybenzaldehyde] |  |  |  |  |  |  | relatively lower selectivity to hydrogen sulfide than Compound 2 |  |  |  |  |  |  |  |  |
| O=Cc1ccccc1/C=C/C(=O)c1ccc2cc(NCCO)ccc2c1 [Compound 4, (E)-2-(3-(6-(2-hydroxyethylamino)naphthalene-2-yl)-3-oxoprop-1-enyl)benzaldehyde] |  |  |  |  |  |  | did not have selectivity to hydrogen sulfide |  |  |  |  |  |  |  |  |
